Reference: paper PMC12508156, “Non-canonical dihydrolipoyl transacetylase promotes chemotherapy resistance via mitochondrial tetrahydrofolate signaling” (Nature Communications, 2025)
Values joined by “and” are separate entries in the source; they are usually repeats but may differ in a detail not shown here. Equal values may be shown once.

Key:
DLAT = DLAT mRNA, DLAT protein and cell viability after elesclomol; assay type: cell-based, human; conditions: increasing doses up to 1 µM for 48 h
Protocol: Elesclomol was administered at increasing doses up to 1 µM for 48 h. The levels of DLAT mRNA (a), DLAT protein (b), and cell viability (c) are shown. Error bars represent the standard deviation (SD) and from 3 independent biological replicates for (a,c). P values were obtained by one-way ANOVA. 1 (1 picture or pasted object on this page, not shown here)

[1] = test system: cisplatin-resistant cancer cells; assay: Drug sensitivity of cancer cells (apoptosis, cell viability); assay type: cell-based, human; conditions: for sensitization of cancer cells to the agent by impairment of DLAT: KB-3-1cisR and A549cisR, DLAT knockdown vs control, sublethal doses 48 h: 50 μM carboplatin, 10 nM gemcitabine, 10 μM etoposide, 0.5 μM pemetrexed, 3 nM paclitaxel, 1 μM erlotinib; for sensitization of cancer cells to cisplatin treatment: 10 μM inhibitor and sublethal doses of cisplatin, 48 h (Fig. 4e, f)
Protocol: Cell viability was determined using the CellTiter-Glo Luminescent Cell Viability Assay. […] Subsequently, the cells were cultured in complete medium for an additional 10 days, and the resulting colonies were visualized by staining with crystal violet and quantified using ImageJ software. For cell cycle analysis, cells fixed with 70% ethanol were stained with RNase A (100 µg/mL) and propidium iodide (50 μg/ml) for 30 min at 37 °C, and DNA content distribution was measured using flow cytometry (BD Symphony A3) and analyzed with FlowJo software (v10.9). Apoptotic cell death was assessed via FITC-conjugated annexin V and propidium iodide staining.

MT-CO2 = assay: MT-CO1, MT-CO2, COXIV expression (immunoblot, quantitative RT-PCR); assay type: cell-based, human
Protocol: Apoptosis (top) and cell viability (bottom) were determined. 10-formyl-THF rescues cisplatin-resistant cell growth (c) and MT-CO2 expression (d) in cells lacking K44 MTHFD2 acetylation. Cisplatin-treated cells expressing K44R MTHFD2 were subjected to 10 μM 10-formyl-THF for 24 h followed by annexin V staining, cell viability assay, and assessment of MT-CO1, MT-CO2, and COXIV levels by immunoblotting and quantitative RT-PCR. Cells expressing the acetyl-mimetic mutant form of MTHFD2 K44Q were included for comparison. Effect of MT-CO2 overexpression on cisplatin-resistant cell growth in cells lacking K44 MTHFD2 acetylation (e) or DLAT (f) by K44R MTHFD2 expression or DLAT knockdown, respectively. Data are mean ± SD from 4 independent biological replicates for (d) and 3 for (a–c, e, f). P values were determined by one-way ANOVA. Source data are provided as a Source Data file.
Supplementary Fig. 8: POLRMT is required for 10-formyl-THF-induced MT-CO2 expression in cisplatin-resistant cells. […]
absence of 10-formyl-THF (10 µM) for 24 h. The levels of MT-CO2, mitochondrial transcription factors, and myc-MTHFD2 were assessed by immunoblotting. […] MT-CO2 mRNA and protein levels were assessed by quantitative RT-PCR and immunoblotting, respectively. […] P values were determined by one-way ANOVA. […]

MTHFD1 = conditions: concurrently inhibiting the ubiquitous isozyme MTHFD1; cited from earlier work
From the text: Inhibitors targeting components of PDC include a non-selective PDK inhibitor, dichloroacetate (DCA)[39]. However, to the best of our knowledge, no specific inhibitor is available to target non-classical DLAT signaling that is independent of PDC. LY345899 and DS18561882 have been reported to be MTHFD2 inhibitors, and are a folate analog and a tricyclic coumarin-based compound that competitively binds to the substrate binding site[40]–[42]. However, these inhibitors are unselective, concurrently inhibiting the ubiquitous isozyme MTHFD1 and thus posing a potential safety risk; therefore, further ...

Bcl-xL = assay: Immunoblotting of apoptosis-associated proteins; assay type: cell-based, human; conditions: NAC in cisplatin-treated DLAT knockdown cells (Fig. 3h)
Protocol: Cellular ROS (upper), apoptosis (middle), and cell viability (lower) were measured. […] Mito-TEMPO (10 μM) or flag-tagged catalase was introduced in cisplatin-treated cells. Mitochondrial ROS and cytoplasmic hydrogen peroxide were measured by mitoSOX staining and luminescence detection, respectively. g Immunoblotting of apoptosis-associated proteins. […] Fold changes were obtained by comparing the DLAT knockdown group to the control group. […] P values were determined by two-tailed Student’s t-test (a, i) and one-way ANOVA for the rest. Source data are provided as a Source Data file.

[2] = test system: A549cisR and KB-3-1cisR cells; assay: Senescence (p21) and autophagy (LC3-I/II, p62) markers, cell cycle; assay type: cell-based, human; conditions: 0.5 mM NAC, 24 h, DLAT shRNA and sublethal cisplatin
Protocol: 1cisR cells were transduced with DLAT-targeting shRNA and treated with sublethal doses of […]
antioxidant N-acetylcysteine (NAC). (a) Western blot analysis of p21 waf1/cip1 expression as a marker of cellular senescence. (b) Western blot analysis of LC3-I/II and p62 as markers of autophagy. (c) Cell cycle distribution was assessed by flow cytometry following propidium iodide staining. (d) Intracellular ROS levels were measured using the H2DCFDA probe. Error bars represent SD and are from 3 independent biological replicates for (c,d). P values were determined by one-way ANOVA.
(1 picture or pasted object on this page, not shown here)

KB-3-1cisR cells = assay: Apoptotic cell death (annexin V/PI staining); assay type: cell-based, human; conditions: KB-3-1cisR; 5 mM DCA and/or sublethal cisplatin, 48 h; n=1-3: biological replicates
A549cisR cells = assay: Apoptotic cell death (annexin V/PI staining); assay type: cell-based, human; conditions: A549cisR; 5 mM DCA and/or sublethal cisplatin, 48 h; n=1-3: biological replicates

CN(NC(=O)CC(=O)NN(C)C(=S)c1ccccc1)C(=S)c1ccccc1 [elesclomol]
DLAT levels (gene and protein) (DLAT): did not alter

COc1cc([C@@H]2c3cc4c(cc3[C@@H](O[C@@H]3O[C@@H]5CO[C@@H](C)O[C@H]5[C@H](O)[C@H]3O)[C@H]3COC(=O)[C@H]23)OCO4)cc(OC)c1O [etoposide]
sensitization of cancer cells to the agent by impairment of DLAT [1]: sensitized

Nc1nc2c(c(=O)[nH]1)NC(CN(C=O)c1ccc(C(=O)N[C@@H](CCC(=O)O)C(=O)O)cc1)CN2 (stereo partly drawn) [10-formyl-THF, 10-Formyltetrahydrofolate]
attenuated cell viability and elevated apoptosis induced by cisplatin and DLAT loss ([1]; supplementation at physiological concentrations, 48 h, DLAT knockdown cells under sublethal cisplatin (Fig. 6a, b)): reversed
MT-CO2 expression in MTHFD2 K44R cells (MT-CO2; 10 μM 10-formyl-THF, 24 h, cisplatin-treated cells (Fig. 6d)): restored

Cc1ccccc1-c1cc(=O)oc2cc(OC(C)C(=O)N(C)C)ccc12 (stereo not drawn) [IMT1]
MT-CO2 expression induced by 10-formyl-THF (MT-CO2; IMT1 5 µM and 10-formyl-THF 10 µM, 24 h (Supplementary Fig. 8b)): mitigated

Nc1nc2c(c(=O)[nH]1)N1C(=O)N(c3ccc(C(=O)N[C@@H](CCC(=O)O)C(=O)O)cc3)CC1CN2 (stereo partly drawn) [LY345899]
sensitization of cancer cells to cisplatin treatment [1]: sensitized
selectivity versus isozyme MTHFD1 (MTHFD1): unselective

CC(=O)N[C@@H](CS)C(=O)O [NAC, N-acetyl-L-cysteine]
Bcl-xL expression (Bcl-xL): partially restored
senescence, autophagy, or cell cycle progression [2]: did not alter
cisplatin-mediated ROS and apoptosis in DLAT knockdown cells ([1]; NAC 0.5 mM, cisplatin-treated DLAT knockdown cells (Fig. 3d)): significantly lowered

CC(=O)O[C@H]1C(=O)[C@@]2(C)[C@H]([C@H](OC(=O)c3ccccc3)[C@]3(O)C[C@H](OC(=O)[C@H](O)[C@@H](NC(=O)c4ccccc4)c4ccccc4)C(C)=C1C3(C)C)[C@]1(OC(C)=O)CO[C@@H]1C[C@@H]2O [paclitaxel]
sensitization of cancer cells to the agent by impairment of DLAT [1]: sensitized

Nc1ccn([C@@H]2O[C@H](CO)[C@@H](O)C2(F)F)c(=O)n1 [gemcitabine]
sensitization of cancer cells to the agent by impairment of DLAT [1]: sensitized

CC1(C)CC(NC(=O)C[P+](c2ccccc2)(c2ccccc2)c2ccccc2)CC(C)(C)N1[O] [mito-TEMPO]
elevated apoptosis and attenuated cell viability induced by DLAT loss and cisplatin ([1]; Mito-TEMPO 10 μM (Fig. 3e)): reversed

N.N.O=C([O-])C1(C(=O)[O-])CCC1.[Pt+2] [carboplatin]
sensitization of cancer cells to the agent by impairment of DLAT [1]: sensitized

Cc1c(N2CCN(C)[C@@H](C)C2)ccc2c3c(c(=O)oc12)CN(C(=O)c1ccc(NS(C)(=O)=O)c(OC(F)(F)F)c1)CC3 [DS18561882]
sensitization of cancer cells to cisplatin treatment [1]: sensitized
selectivity versus isozyme MTHFD1 (MTHFD1): unselective

C#Cc1cccc(Nc2ncnc3cc(OCCOC)c(OCCOC)cc23)c1 [erlotinib]
sensitization of cancer cells to the agent by impairment of DLAT [1]: not

Nc1nc2[nH]cc(CCc3ccc(C(=O)N[C@@H](CCC(=O)O)C(=O)O)cc3)c2c(=O)[nH]1 [pemetrexed]
sensitization of cancer cells to the agent by impairment of DLAT [1]: sensitized

O=C(O)C(Cl)Cl [DCA, dichloroacetate]
Apoptotic death (KB-3-1cisR cells): 2.5 and 4.8 and 4.4
Apoptotic death (A549cisR cells): 9.2 and 6.2
survival of cisplatin-resistant cancer cells ([1]; 5 mM DCA and cisplatin, 48 h, A549cisR and KB-3-1cisR (Fig. 2e)): no significant effect
